≈ marks a conversion by molar mass, not a printed value.
Key:
[1] = tested on: Aspergillus fumigatus AF293; assay: MIC, YAG medium, Aspergillus fumigatus AF293; type: cell-based; conditions: YAG medium; for MIC: Aspergillus fumigatus, AF293, read-out: MIC A Fum. 293
Summary of the method: (§1)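 MICs in mg/L are lowest drug levels suppressing growth (OD 485 nm) relative to drug-free wells: Aspergillus in YAG at >70%, 24 hrs; Candida albicans in buffered RPMI at >80%, 24-48 hrs. Both incubated at 35° C across 50-0.05 mg/L doubling dilutions.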

Aspergillus niger = assay: MIC, YAG medium, Aspergillus niger; type: cell-based; conditions: YAG medium; for MIC: Aspergillus niger, read-out: MIC A Niger 1
Summary of the method: as §1

Aspergillus terreus = assay: MIC, YAG medium, Aspergillus terreus; type: cell-based; conditions: YAG medium; for MIC: Aspergillus terreus, read-out: MIC A Terreus 4
Summary of the method: as §1

[2] = tested on: Aspergillus fumigatus AF210; assay: MIC, YAG medium, Aspergillus fumigatus AF210; type: cell-based; conditions: YAG medium; for MIC: Aspergillus fumigatus, AF210, read-out: MIC A Fum. 210
Summary of the method: as §1

A Terreus 49 = assay: MIC, YAG medium, A Terreus 49; type: cell-based, Aspergillus terreus; conditions: YAG medium; for MIC: Aspergillus terreus, read-out: MIC A Terreus 49
Summary of the method: as §1

Aspergillus flavus = assay: MIC, YAG medium, Aspergillus flavus; type: cell-based; conditions: YAG medium; for MIC: Aspergillus flavus, read-out: MIC A Flavus 01
Summary of the method: as §1

Row | SMILES | MIC A Fum. 293 [1] [µg/mL] | MIC A Niger 1 (Aspergillus niger) [µg/mL] | MIC A Terreus 4 (Aspergillus terreus) [µg/mL] | MIC A Fum. 210 [2] [µg/mL] | MIC A Terreus 49 (A Terreus 49) [µg/mL] | MIC A Flavus 01 (Aspergillus flavus) [µg/mL] | MIC [1] [µg/mL] | MIC (Aspergillus niger) [µg/mL] | MIC (Aspergillus terreus) [µg/mL] | MIC [2] [µg/mL] | MIC (A Terreus 49) [µg/mL] | MIC (Aspergillus flavus) [µg/mL]
1 | COc1ccc(NC(=O)C(=NOCCCC(=O)O)c2c(-c3ccccc3)cc3ccccn23)cc1 (mixture of isomers) [Example 297, 4-[1-(4-Methoxy-phenylcarbamoyl)-1-(2-phenyl-indolizin-3-yl)-meth-(E/Z)-ylideneaminooxy]-butyric acid] | 12.5 | 1.6 | 0.8 | 12.5 | 0.4 | 0.4 |  |  |  |  |  | 
2 | Cc1noc(C)c1-c1ccc(NC(=O)C(=O)c2c(-c3ccccc3)cc3ccccn23)cc1 [Example 287, N-[4-(3,5-Dimethyl-isoxazol-4-yl)-phenyl]-2-oxo-2-(2-phenyl-indolizin-3-yl)-acetamide] |  |  |  |  |  |  | 0.05 (≈ 0.115 µM) | 0.015 (≈ 0.0344 µM) | 0.03 (≈ 0.0689 µM) | 0.1 (≈ 0.23 µM) | 0.008 (≈ 0.0184 µM) | 0.03 (≈ 0.0689 µM)
3 | Cc1ccc(Cl)cc1NC(=O)C(=O)c1c(-c2ccccc2)cc2ccccn12 [Example 246, N-(5-Chloro-2-methyl-phenyl)-2-oxo-2-(2-phenyl-indolizin-3-yl)-acetamide] |  |  |  |  |  |  | 0.12 (≈ 0.309 µM) | 0.062 (≈ 0.159 µM) | 0.008 (≈ 0.0206 µM) | 0.25 (≈ 0.643 µM) | 0.004 (≈ 0.0103 µM) | 0.031 (≈ 0.0797 µM)
4 | COc1ccc(NC(=O)C(=O)c2c(-c3ccccc3)cc3ccccn23)cn1 [Example 146, N-(6-Methoxy-pyridin-3-yl)-2-oxo-2-(2-phenyl-indolizin-3-yl)-acetamide] |  |  |  |  |  |  | 0.5 (≈ 1.35 µM) | 0.25 (≈ 0.673 µM) | 0.062 (≈ 0.167 µM) | 0.5 (≈ 1.35 µM) | 0.03 (≈ 0.0808 µM) | 0.062 (≈ 0.167 µM)
5 | O=C(Nc1ccccc1)C(=O)c1c(-c2ccccc2)cc2ccccn12 [Example 136, 2-Oxo-N-phenyl-2-(2-phenyl-indolizin-3-yl)-acetamide] |  |  |  |  |  |  | 0.25 (≈ 0.734 µM) | 0.031 (≈ 0.0911 µM) | 0.031 (≈ 0.0911 µM) | 0.12 (≈ 0.353 µM) | 0.004 (≈ 0.0118 µM) | 0.031 (≈ 0.0911 µM)
6 | CN1CCc2cc(NC(=O)C(=O)c3c(-c4ccccc4)cc4ccccn34)ccc21 [Example 261, N-(1-Methyl-2,3-dihydro-1H-indol-5-yl)-2-oxo-2-(2-phenyl-indolizin-3-yl)-acetamide] |  |  |  |  |  |  | 0.03 (≈ 0.0759 µM) | 0.06 (≈ 0.152 µM) | 0.004 (≈ 0.0101 µM) | 0.03 (≈ 0.0759 µM) | 0.001 (≈ 0.00253 µM) | 0.004 (≈ 0.0101 µM)
7 | O=C(Nc1ccc(F)cc1F)C(=O)c1c(-c2ccc(F)cc2F)cc2ccccn12 [Example 265, N-(2,4-Difluoro-phenyl)-2-[2-(2,4-difluoro-phenyl)-indolizin-3-yl]-2-oxo-acetamide] |  |  |  |  |  |  | > 50 | 0.008 (≈ 0.0194 µM) | 0.015 (≈ 0.0364 µM) | > 50 | 0.06 (≈ 0.146 µM) | 0.1 (≈ 0.243 µM)
8 | O=C(Nc1ccc(N2CCCC2)cc1)C(=O)c1c(-c2ccccc2)cc2ccccn12 [Example 260, 2-Oxo-2-(2-phenyl-indolizin-3-yl)-N-(4-pyrrolidin-1-yl-phenyl)-acetamide] |  |  |  |  |  |  | 0.015 (≈ 0.0366 µM) | 0.015 (≈ 0.0366 µM) | 0.008 (≈ 0.0195 µM) | 0.03 (≈ 0.0733 µM) | 0.008 (≈ 0.0195 µM) | 0.008 (≈ 0.0195 µM)
9 | Cc1cc(NC(=O)C(=O)c2c(-c3ccccc3)cc3ccccn23)ccc1N(C)C [Example 273, N-(4-Dimethylamino-3-methyl-phenyl)-2-oxo-2-(2-phenyl-indolizin-3-yl)-acetamide] |  |  |  |  |  |  | 0.062 (≈ 0.156 µM) | 0.12 (≈ 0.302 µM) | 0.004 (≈ 0.0101 µM) | 0.031 (≈ 0.078 µM) | 0.002 (≈ 0.00503 µM) | 0.004 (≈ 0.0101 µM)
10 | COC(=O)c1cccc(NC(=O)C(=O)c2c(-c3ccccc3)cc3ccccn23)c1 [Example 141, 3-[2-Oxo-2-(2-phenyl-indolizin-3-yl)-acetylamino]-benzoic acid methyl ester] |  |  |  |  |  |  | 0.12 (≈ 0.301 µM) | 0.25 (≈ 0.627 µM) | 0.031 (≈ 0.0778 µM) | 0.12 (≈ 0.301 µM) | 0.015 (≈ 0.0376 µM) | 0.008 (≈ 0.0201 µM)
11 | O=C(Nc1ccc(Cl)cc1)C(=O)c1c(-c2ccccc2)cc2ccccn12 [Example 281, N-(4-Chloro-phenyl)-2-oxo-2-(2-phenyl-indolizin-3-yl)-acetamide] |  |  |  |  |  |  | 0.25 (≈ 0.667 µM) | 0.031 (≈ 0.0827 µM) | 0.031 (≈ 0.0827 µM) | 0.12 (≈ 0.32 µM) | 0.008 (≈ 0.0213 µM) | 0.031 (≈ 0.0827 µM)
12 | COC(=O)c1csc(NC(=O)C(=O)c2c(-c3ccccc3)cc3ccccn23)c1 [Example 154, 5-[2-Oxo-2-(2-phenyl-indolizin-3-yl)-acetylamino]-thiophene-3-carboxylic acid methyl ester] |  |  |  |  |  |  | 1.6 (≈ 3.96 µM) | 0.05 (≈ 0.124 µM) | 0.8 (≈ 1.98 µM) | 1.6 (≈ 3.96 µM) | 0.12 (≈ 0.297 µM) | 0.25 (≈ 0.618 µM)
13 | N#Cc1cccc(-c2cc3ccccn3c2C(=O)C(=O)Nc2ccc(F)cc2F)c1 [Example 245, 2-[2-(3-Cyano-phenyl)-indolizin-3-yl]-N-(2,4-difluoro-phenyl)-2-oxo-acetamide] |  |  |  |  |  |  | 6.25 (≈ 15.6 µM) | 0.4 (≈ 0.997 µM) | 0.4 (≈ 0.997 µM) | 6.25 (≈ 15.6 µM) | 0.8 (≈ 1.99 µM) | 0.8 (≈ 1.99 µM)
14 | Cn1ccc2cc(NC(=O)C(=O)c3c(-c4ccccc4)cc4ccccn34)ccc21 [Example 256, N-(1-Methyl-1H-indol-5-yl)-2-oxo-2-(2-phenyl-indolizin-3-yl)-acetamide] |  |  |  |  |  |  | 0.015 (≈ 0.0381 µM) | 0.03 (≈ 0.0762 µM) | 0.001 (≈ 0.00254 µM) | 0.015 (≈ 0.0381 µM) | 0.001 (≈ 0.00254 µM) | 0.04 (≈ 0.102 µM)
15 | CN(C)c1ccc(NC(=O)C(=O)c2c(-c3cccnc3)cc3ccccn23)cn1 [Example 253, N-(6-Dimethylamino-pyridin-3-yl)-2-oxo-2-(2-pyridin-3-yl-indolizin-3-yl)-acetamide] |  |  |  |  |  |  | > 50 | > 50 | 12.5 (≈ 32.4 µM) | > 50 | 12.5 (≈ 32.4 µM) | 25 (≈ 64.9 µM)
16 | O=C(Nc1ccc(-c2nccs2)cc1)C(=O)c1c(-c2ccccc2)cc2ccccn12 [Example 293, 2-Oxo-2-(2-phenyl-indolizin-3-yl)-N-(4-thiazol-2-yl-phenyl)-acetamide] |  |  |  |  |  |  | 0.1 (≈ 0.236 µM) | 0.008 (≈ 0.0189 µM) | 0.015 (≈ 0.0354 µM) | 0.4 (≈ 0.945 µM) | 0.004 (≈ 0.00945 µM) | 0.05 (≈ 0.118 µM)
17 | CC1(c2ccc(NC(=O)C(=O)c3c(-c4ccccc4)cc4ccccn34)cc2)OCCO1 [Example 264, N-[4-(2-Methyl-[1,3]dioxolan-2-yl)-phenyl]-2-oxo-2-(2-phenyl-indolizin-3-yl)-acetamide] |  |  |  |  |  |  | 0.05 (≈ 0.117 µM) | 0.05 (≈ 0.117 µM) | 0.015 (≈ 0.0352 µM) | 0.05 (≈ 0.117 µM) | 0.008 (≈ 0.0188 µM) | 0.05 (≈ 0.117 µM)
18 | CN(C)c1ccc(NC(=O)C(=O)c2c(-c3ccccc3)cc3ccccn23)cc1-c1ncco1 [Example 292, N-(4-Dimethylamino-3-oxazol-2-yl-phenyl)-2-oxo-2-(2-phenyl-indolizin-3-yl)-acetamide] |  |  |  |  |  |  | 0.4 (≈ 0.888 µM) | 0.8 (≈ 1.78 µM) | 0.03 (≈ 0.0666 µM) | 0.2 (≈ 0.444 µM) | 0.015 (≈ 0.0333 µM) | 0.03 (≈ 0.0666 µM)
19 | O=C(Nc1ccc(-c2ncco2)cc1)C(=O)c1c(-c2ccccc2)cc2ccccn12 [Example 268, N-(4-Oxazol-2-yl-phenyl)-2-oxo-2-(2-phenyl-indolizin-3-yl)-acetamide] |  |  |  |  |  |  | 0.1 (≈ 0.245 µM) | 0.015 (≈ 0.0368 µM) | 0.015 (≈ 0.0368 µM) | 0.06 (≈ 0.147 µM) | 0.015 (≈ 0.0368 µM) | 0.03 (≈ 0.0736 µM)
20 | Cc1ccc(NC(=O)C(=O)c2c(-c3cccs3)cc3ccccn23)cc1 [Example 165, 2-Oxo-2-(2-thiophen-2-yl-indolizin-3-yl)-N-p-tolyl-acetamide] |  |  |  |  |  |  | 0.8 (≈ 2.22 µM) | 0.25 (≈ 0.694 µM) | 0.06 (≈ 0.166 µM) | 1.6 (≈ 4.44 µM) | 0.062 (≈ 0.172 µM) | 0.062 (≈ 0.172 µM)
21 | COc1ccc(NC(=O)C(=O)c2c(-c3cccc(Cl)c3)cc3ccccn23)cc1 [Example 235, 2-[2-(3-Chloro-phenyl)-indolizin-3-yl]-N-(4-methoxy-phenyl)-2-oxo-acetamide] |  |  |  |  |  |  | 0.5 (≈ 1.24 µM) | 0.12 (≈ 0.296 µM) | 0.015 (≈ 0.0371 µM) | 0.5 (≈ 1.24 µM) | 0.008 (≈ 0.0198 µM) | 0.031 (≈ 0.0766 µM)

— US8486962B2, “Antifungal agents” (F2G Ltd., priority 2005, dated 2013)
